Experimental findings from patent publication US20260209249A1, “NOVEL TRICYCLIC COMPOUND AS KRAS G12D INHIBITOR, AND USE THEREOF” (SK Biopharmaceuticals Co., priority 2022, published 2026) are described below.

Experiment [1] concerns the target T1, GDP-KRAS G12D mutant protein (Homo sapiens, UniProt P01116, G12D).
T1 construct: purchased Daegu Gyeongbuk Medical Innovation Foundation (DGMIF), made to order
The experiment is described as follows: Differential scanning fluorimetry (DSF) binding affinity to GDP-KRAS G12D mutant protein. Particulars: DSF thermal shift, 10 μM compound, 4 μg KRAS protein. Here is the method: (§1) Test Example 1: Measurement of Binding Affinity to KRAS G12D Mutant Protein The binding affinities of the compounds according to one embodiment of the present application to the KRAS G12D mutant protein were evaluated using differential scanning fluorimetry (DSF). Differential scanning fluorimetry (DSF) is a method used to study the stability of a protein upon binding to a compound. The experiment can be performed using a real-time PCR (RT-PCR) instrument, and is commonly employed as a screening technique for small-molecule compounds targeting specific proteins. As the temperature increases, folded proteins begin to unfold, during which a hydrophobic dye such as SYPRO Orange binds to the exposed hydrophobic regions of the protein, resulting in a measurable increase in fluorescence intensity (maximum absorption at 470 nm and maximum emission at 570 nm). Protein-compound binding is determined by the difference in the melting temperature (Tm) of the protein in the presence of the compound compared to the Tm in the absence of the compound, expressed as ΔTm. The binding affinity to the KRAS G12D mutant protein was measured using the Protein Thermal Shift Dye kit (#4461146, Applied Biosystems). The GDP-KRAS G12D mutant protein and GppNHp-KRAS G12D mutant protein used in the experiment were recombinant proteins synthesized by the Daegu Gyeongbuk Medical Innovation Foundation (DGMIF) upon request. The analysis of binding between the compound and the KRAS G12D mutant protein was performed according to the following reaction recipe: each test sample contained 4 μg of KRAS protein, 10 μM of the compound, and 2×SYPRO Orange dye. For the GDP-KRAS G12D protein samples, the buffer provided with the Protein Thermal Shift Dye kit was used, while for the GppNHp-KRAS G12D protein samples, 50 mM HEPES (pH 7.5) buffer was used. For the protein-compound binding reaction, the compound was added to the KRAS G12D mutant protein and reacted at room temperature for 30 minutes, followed by the addition of 2×SYPRO Orange dye. The temperature was increased to 25° C.-99° C. (0.05° C./s) using QuantStudiol RT-PCR instrument (Applied Biosystems), and fluorescence was measured using a ROX reporter with filters of 580±10 nm (excitation)/623±14 nm (emission). The measurements obtained at a compound concentration of 10 μM were analyzed using the Protein Thermal Shift Software program (version v1.4, Thermo Fisher Scientific), and the ΔTm (° C.) values, which indicate the binding affinity of the compound to the KRAS G12D mutant protein, were calculated. The DSF measurement results for the compounds according to one embodiment of the present application with respect to the KRAS G12D mutant protein are shown in Table 2.

The target in experiment [2] is T2, GppNHp-KRAS G12D mutant protein (Homo sapiens, UniProt P01116, G12D).
T2 construct: purchased Daegu Gyeongbuk Medical Innovation Foundation (DGMIF), made to order
In words: Differential scanning fluorimetry (DSF) binding affinity to GppNHp-KRAS G12D mutant protein. To be noted: DSF thermal shift, 10 μM compound, 4 μg KRAS protein, 50 mM HEPES (pH 7.5). Here is the method:
as §1

As to `CCc1c(F)ccc2cc(O)cc(-c3cc4nc(OC[C@@]56CCCN5C[C@H](F)C6)nc(NCC5(N(C)C)CCC5)c4n4ccnc34)c12` [Example 4, 4-(1-(((1-(dimethylamino)cyclobutyl)methyl)amino)-3-(((2R,7aS)-2-fluorotetrahydro-1H-pyrrolizin-7a(5H)-yl)methoxy)imidazo[1′,2′:1,6]pyrido[3,2-d]pyrimidin-6-yl)-5-ethyl-6-fluoronaphthalen-2-ol], in experiment [1], the “GDP-KRAS G12D (ΔTmD, ° C.)” value was 1.90 °C. The “GppNHp-KRAS G12D (ΔTmD, ° C.)” value in experiment [2] worked out at 0.57 °C.
For `Nc1c(F)c(F)c(F)c(-c2cc3nc(OC[C@@]45CCCN4C[C@H](F)C5)nc(N4C[C@H]5CC[C@@H](C4)N5)c3n3ccnc23)c1F` [Example 13, 3-(1-((1R,5S)-3,8-diazabicyclo[3.2.1]octan-3-yl)-3-(((2R,7aS)-2-fluorotetrahydro-1H-pyrrolizin-7a(51H)-yl)methoxy)imidazo[1′,2′:1,6]pyrido[3,2-d]pyrimidin-6-yl)-2,4,5,6-tetrafluoroaniline] the same measures were 0.28 °C and −0.61 °C.
On the same counts, the results for `Nc1nc2c(-c3cc4nc(OC[C@@]56CCCN5C[C@H](F)C6)nc(N5[C@@H]6CC[C@H]5CNC6)c4n4ccnc34)ccc(F)c2s1` [Example 15, 4-(1-((1R,5S)-3,8-diazabicyclo[3.2.1]octan-8-yl)-3-(((2R,7aS)-2-fluorotetrahydro-1H-pyrrolizin-7a(5H)-yl)methoxy)imidazo[1′,2′:1,6]pyrido[3,2-d]pyrimidin-6-yl)-7-fluorobenzo[d]thiazol-2-amine] are −0.01 °C and 0.28 °C.
For `Cc1cc2[nH]ncc2c(-c2cc3nc(OC[C@@]45CCCN4C[C@H](F)C5)nc(N4[C@@H]5CC[C@H]4CNC5)c3n3ccnc23)c1C(F)(F)F` [Example 18, 1-((1 R,5S)-3,8-diazabicyclo[3.2.1]octan-8-yl)-3-(((2R,7aS)-2-fluorotetrahydro-1H-pyrrolizin-7a(5H)-yl)methoxy)-6-(6-methyl-5-(trifluoromethyl)-1H-indazol-4-yl)imidazo[1′,2′:1,6]pyrido[3,2-d]pyrimidine], the “GDP-KRAS G12D (ΔTmD, ° C.)” value in experiment [1] was 2.35 °C. The “GppNHp-KRAS G12D (ΔTmD, ° C.)” value in experiment [2] worked out at 1.01 °C.
For `C#Cc1c(F)ccc2cc(O)cc(-c3cc4nc(OCC5(CN6CCC[C@H](F)C6)CC5)nc(N5[C@@H]6CC[C@H]5CNC6)c4n4ccnc34)c12` [Example 19, 4-(1-((1R,5S)-3,8-diazabicyclo[3.2.1]octan-8-yl)-3-((1-(((S)-3-fluoropiperidin-1-yl)methyl)cyclopropyl)methoxy)imidazo[1′,2′:1,6]pyrido[3,2-d]pyrimidin-6-yl)-5-ethynyl-6-fluoronaphthalen-2-ol] the same measures were 7.68 °C and 3.82 °C.
Regarding `Cc1cc(N)nc(-c2cc3nc(OC[C@@]45CCCN4C[C@H](F)C5)nc(N4[C@@H]5CC[C@H]4CNC5)c3n3ccnc23)c1C(F)(F)F` [Example 20, 6-(1-((1R,5S)-3,8-diazabicyclo[3.2.1]octan-8-yl)-3-(((2R,7aS)-2-fluorotetrahydro-1H-pyrrolizin-7a(5H)-yl)methoxy)imidazo[1′,2′:1,6]pyrido[3,2-d]pyrimidin-6-yl)-4-methyl-5-(trifluoromethyl)pyridin-2-amine], in experiment [1], the “GDP-KRAS G12D (ΔTmD, ° C.)” value is −0.17 °C. Further, the “GppNHp-KRAS G12D (ΔTmD, ° C.)” value in experiment [2] is 0.27 °C.
On the same counts, the results for `C#Cc1c(F)ccc2cccc(-c3cc4nc(OC[C@@]56CCCN5C/C(=C\F)C6)nc(N5[C@@H]6CC[C@H]5CNC6)c4n4ccnc34)c12` [Example 22, 1-((1R,5S)-3,8-diazabicyclo[3.2.1]octan-8-yl)-6-(8-ethynyl-7-fluoronaphthalen-1-yl)-3-(((S,Z)-2-(fluoromethylene)tetrahydro-1H-pyrrolizin-7a(5H)-yl)methoxy)imidazo[1′,2′:1,6]pyrido[3,2-d]pyrimidine] are 4.28 °C and 1.02 °C.
As for `C#Cc1c(F)ccc2cc(N)cc(-c3cc4nc(OC[C@@]56CCCN5C[C@H](F)C6)nc(N5C[C@H]6CC[C@@H](C5)N6)c4n4ccnc34)c12` [Example 24, 4-(1-((1R,5S)-3,8-diazabicyclo[3.2.1]octan-3-yl)-3-(((2R,7aS)-2-fluorotetrahydro-1H-pyrrolizin-7a(5H)-yl)methoxy)imidazo[1′,2′:1,6]pyrido[3,2-d]pyrimidin-6-yl)-5-ethynyl-6-fluoronaphthalen-2-amine], the “GDP-KRAS G12D (ΔTmD, ° C.)” value in experiment [1] was 5.48 °C. Further, the “GppNHp-KRAS G12D (ΔTmD, ° C.)” value in experiment [2] worked out at 2.07 °C.
For `Nc1nc2c(-c3cc4nc(OC[C@@]56CCCN5C[C@H](F)C6)nc(N5C[C@H]6CC[C@@H](C5)N6)c4n4ccnc34)ccc(F)c2s1` [Example 25, 4-(1-((1R,5S)-3,8-diazabicyclo[3.2.1]octan-3-yl)-3-(((2R,7aS)-2-fluorotetrahydro-1H-pyrrolizin-7a(5H)-yl)methoxy)imidazo[1′,2′:1,6]pyrido[3,2-d]pyrimidin-6-yl)-7-fluorobenzo[d]thiazol-2-amine] the same measures were 0.27 °C and −0.17 °C.
On the same counts, the results for `Cc1cc2[nH]ncc2c(-c2cc3nc(OC[C@@]45CCCN4C[C@H](F)C5)nc(N4C[C@H]5CC[C@@H](C4)N5)c3n3ccnc23)c1C(F)(F)F` [Example 26, 1-((1 R,5S)-3,8-diazabicyclo[3.2.1]octan-3-yl)-3-(((2R,7aS)-2-fluorotetrahydro-1H-pyrrolizin-7a(5H)-yl)methoxy)-6-(6-methyl-5-(trifluoromethyl)-1H-indazol-4-yl)imidazo[1′,2′:1,6]pyrido[3,2-d]pyrimidine] are 4.12 °C and 1.01 °C.
For `C#Cc1c(F)ccc2cccc(-c3cc4nc(OC[C@@]56CCCN5C/C(=C\F)C6)nc(N5C[C@H]6CC[C@@H](C5)N6)c4n4ccnc34)c12` [Example 27, 1-((1 R,5S)-3,8-diazabicyclo[3.2.1]octan-3-yl)-6-(8-ethynyl-7-fluoronaphthalen-1-yl)-3-(((S,Z)-2-(fluoromethylene)tetrahydro-1H-pyrrolizin-7a(5H)-yl)methoxy)imidazo[1′,2′:1,6]pyrido[3,2-d]pyrimidine] the same measures were 4.27 °C and 0.71 °C.
Regarding `C#Cc1c(F)ccc2cccc(-c3cc4nc(OC[C@@]56CCCN5C[C@H](F)C6)nc(N5C[C@H]6CC[C@@H](C5)N6)c4n4ccnc34)c12` [Example 28, 1-((1R,5S)-3,8-diazabicyclo[3.2.1]octan-3-yl)-6-(8-ethynyl-7-fluoronaphthalen-1-yl)-3-(((2R,7aS)-2-fluorotetrahydro-1H-pyrrolizin-7a(5H)-yl)methoxy)imidazo[1′,2′:1,6]pyrido[3,2-d]pyrimidine], the “GDP-KRAS G12D (ΔTmD, ° C.)” value in experiment [1] came to 3.53 °C. Besides, the “GppNHp-KRAS G12D (ΔTmD, ° C.)” value in experiment [2] turned out to be 0.27 °C.
On the same counts, the results for `C#Cc1c(F)ccc2cc(O)cc(-c3cc4nc(OCC5(CN6CC[C@@H](F)C6)CC5)nc(N5C[C@H]6CC[C@@H](C5)N6)c4n4ccnc34)c12` [Example 30, 4-(1-((1R,5S)-3,8-diazabicyclo[3.2.1]octan-3-yl)-3-((1-(((R)-3-fluoropyrrolidin-1-yl)methyl)cyclopropyl)methoxy)imidazo[1′,2′:1,6]pyrido[3,2-d]pyrimidin-6-yl)-5-ethynyl-6-fluoronaphthalen-2-ol] are 8.12 °C and 2.81 °C.
